# Laboratory results: US6080791A, “Method of treating a viral condition by inhibiting membrane fusion” (priority 1992, dated 2000)
# Like-named read-outs stand apart in the source and are kept apart here.
# Tests used:
# [1] = test system: influenza-mediated syncytia formation, CV-1 cells
# C22 virus in MDCK2 cells [2] = test system: C22 virus in MDCK2 cells
# [3] = test system: hemagglutinin-mediated hemolysis of human red blood cells; assay: Hemolysis (HEM) assay; format: cell-based, C22 influenza virus; human red blood cells
# C22 virus in MDCK2 cells [4] = assay: microbe, parasite or virus in culture; conditions: unidentified influenza virus; for inhibition at 1 µM / inhibition at 10 µM / inhibition at 100 µM: MDCK2, 15 h, read-out: infectivity % inhibition
# in vitro = conditions: dog, mdck
# Procedure: The ELISA-based assay described below (EIA antiviral assay) was used to measure antiviral activity. Cell viability was measured in parallel to distinguish inhibition of viral replication from toxicity.
# Infections of MDCK2 cells with virus, compounds, and DMSO were set up identically as for the EIA assay. Following the 15 hour incubation, test compounds were washed away with PBS. 50 μl of MDCK2 growth media and 25 μl 2 mg/ml 3-(4,5-dimethylthiazol-2-yl)-2,5-diphenyl tetrazolium bromide (Sigma) in PBS were added to each well. Plates were returned to 37° C., 5% CO2 for 4 hrs. Crystals were broken up by vigorous mixing following addition of 80 μl isopropanol/0.04 N HCl. After incubation for 30 mins at RT, OD570 was read on an ELISA reader. % Inhibition is the % reduction of OD570 in the wells infected with compound compared to otherwise identical samples with compound omitted.
# [5] = molecular target: hemagglutinin (BHA), fusion peptide exposure (Influenza A virus (A/X-31(H3N2)), UniProt P03438); format: biochemical, C22 / X31 influenza virus (H3N2)
# hemagglutinin (BHA), fusion peptide exposure (Influenza A virus (A/X-31(H3N2)), UniProt P03438), sequence (P03438 whole entry, looked up, the tested form may be a part): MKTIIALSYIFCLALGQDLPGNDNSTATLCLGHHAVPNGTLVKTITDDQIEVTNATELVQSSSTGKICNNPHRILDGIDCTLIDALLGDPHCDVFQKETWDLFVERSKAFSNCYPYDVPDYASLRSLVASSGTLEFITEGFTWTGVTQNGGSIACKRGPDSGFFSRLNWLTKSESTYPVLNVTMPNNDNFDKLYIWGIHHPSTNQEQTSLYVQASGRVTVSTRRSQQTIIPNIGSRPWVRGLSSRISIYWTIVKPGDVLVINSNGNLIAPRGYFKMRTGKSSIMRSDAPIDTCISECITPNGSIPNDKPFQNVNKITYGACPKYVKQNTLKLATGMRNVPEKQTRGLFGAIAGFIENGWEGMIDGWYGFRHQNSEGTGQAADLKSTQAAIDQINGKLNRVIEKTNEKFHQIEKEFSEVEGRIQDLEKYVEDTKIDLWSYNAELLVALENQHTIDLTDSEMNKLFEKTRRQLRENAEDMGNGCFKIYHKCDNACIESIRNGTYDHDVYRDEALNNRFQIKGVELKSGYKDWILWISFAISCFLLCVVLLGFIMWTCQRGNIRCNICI
# hemoglobin = assay: Hb control (quenching of OD570 of hemoglobin); parameters: species or system human
# low pH BHA = assay: SPA POST control (nonspecific quenching); parameters: species or system C22 / X31 influenza virus (H3N2)
# Procedure: The compounds being screened by SPA are present during scintillation counting. Some of the chemicals, particularly those that are highly colored, quench the detection of radioactivity. A control ("POST") distinguishes whether apparent inhibition arises from inhibition of the conformational change or from nonspecific effects. The test compound is added to a sample of BHA that had previously been acidified and reneutralized. The mixture is then precipitated as usual. Since the BHA treated in this manner is known to be in the low pH conformation, a reduction in measurable cpm compared to controls with ligand omitted proves the compound interferes with the detection system.
# ^3 H-Leu BHA was diluted to 10,000 cpm (counts per minute) per 200 μl in MSSH buffer (10 mM HEPES, 10 mM MES, 10 mM succinate, 0.10 M NaCl, pH 7.0) containing 0.1% NP40. Protein was incubated with the specified concentration of trial compound for 25 minutes at RT. The same volume of solvent used to dissolve the compound was added to control samples and the final concentration of DMSO in all solutions was 0.67% v/v. A predetermined amount of 1N HAc was added to bring the reactions to the appropriate pH (usually pH 5.0). Following a 5 minute (unless specified otherwise) incubation at RT, reactions were reneutralized with 1N NaOH. For POST controls, compounds were added to the appropriate concentration after reneutralization. 200 μL aliquots of the protein solution were added to scintillation vials containing 100 μl protein A-SPA beads (Amersham), 5% fetal bovine serum (FBS), and antibody. Vials were incubated overnight at RT with constant shaking. Each reaction used 10 μl of fusion peptide antiserum diluted 1:10 with 50% glycerol. Cpm were detected in a Beckman LS3801 scintillation counter without addition of liquid scintillant.
# Apparent inhibition due to nonspecific effects was quantitated from the POST controls with the equation:
# observed cpm=true cpm*quench factor
# [6] = Procedure: Synthesis, purification, and characterization of selected compounds are summarized below. Stock solutions were prepared fresh daily. All solutions of the test compounds were prepared in dimethyl-sulfoxide (DMSO).
# [7] = unidentified influenza virus, Erythrocyte, 0.25 h, Table 6, 10^-3 = 1 mM, low pH 15 minutes, read-out: IC50 hemolysis
# [8] = unidentified influenza virus, Erythrocyte, Table 7, read-out: HEM, negative log of IC50 (converted)
# [9] = unidentified influenza virus, Erythrocyte, log conc -3 (M), read-out: hemolysis % ↓ OD
# [10] = unidentified influenza virus, Erythrocyte, log conc -4 (M), read-out: hemolysis % ↓ OD
# [11] = MDCK2, read-out: INF, negative log of IC50 (converted)
# [12] = MDCK2, read-out: IC50 infectivity
# [13] = unidentified influenza virus, Erythrocyte, log conc -5 (M), read-out: hemolysis % ↓ OD
# [14] = unidentified influenza virus, Erythrocyte, read-out: hemolysis % ↓ OD
Compound,"syncytia, Table 6 [1]",inhibition of hemolytic activity [3],"IC50 [3, 8] [µM]","inhibition at 1000 µM [3, 9] [%]","inhibition at 100 µM [3, 10] [%]",inhibition at 1 µM (C22 virus in MDCK2 cells [4]) [%],inhibition at 10 µM (C22 virus in MDCK2 cells [4]) [%],inhibition at 100 µM (C22 virus in MDCK2 cells [4]) [%],IC50 (C22 virus in MDCK2 cells [4]; [11]) [µM],"cytotoxicity at 15 h, 1 µM (in vitro) [%]","cytotoxicity at 15 h, 10 µM (in vitro) [%]","cytotoxicity at 15 h, 100 µM (in vitro) [%]",Hb control % ↓ OD (hemoglobin; log conc -3 (M)) [%],Hb control % ↓ OD (hemoglobin; log conc -4 (M)) [%],other results
"Cc1cc(O)c(C)cc1O [Compound 116, 2,5-dimethylhydroquinone]",morph,did not,> 1000,17.3,7.7,18.8 ± 1.7,42.8 ± 4.7,78.1 ± 10,10 to 100,3.6 ± 4.5,-9.4 ± 5,-23.6 ± 5,44.0,31.6,"infectivity inhibition (C22 virus in MDCK2 cells [2]): inhibited infectivity; IC50 [3, 7]: > 1000 µM; SPA activity [5]: inactive in the SPA"
"Oc1ccc(O)c2c1C1CCC2C1 [Compound 111, 3',6'-dihydroxybenzonorbornane]",morph,,100 to 1000,36.7 ± 0.6,-6.9 ± 9.3,21.7 ± 4.9,57.4 ± 25.2,102 ± 10.6,10,1 ± 5.8,-1.6 ± 0.8,41 ± 17,64.9 ± 0.5,40.4 ± 1.3,"% inhibition, POST control (low pH BHA; log conc -3 (M)): 13.3%; % inhibition, POST control (low pH BHA; log conc -4 (M)): 9.5%; IC50 (C22 virus in MDCK2 cells [4]; [12]): 10 µM; activity rank among compounds tested [5]: most active"
"O=C(O)C1C=CCC2C(=O)C=CC(=O)C12 (centres unmarked) [Compound 91, 5,8-dioxo-1,4,4A,5,8,8A-hexahydro-1-naphthalene carboxylic acid]",,apparently inhibited hemolytic activity,,91 ± 14.6,60.5 ± 0.7,-1.3 ± 4,6.5 ± 7,70.9 ± 39.8,,-0.06 ± 5.1,-2 ± 9.4,-4.3 ± 7,29.6 ± 2.5,26.8 ± 5.0,"% inhibition, POST control (low pH BHA; log conc -3 (M)): 54.5%; inhibition at 100 µM ([3]; unidentified influenza virus, Erythrocyte, 0.1 mM, pH 5.0, FIG. 8, read-out: Maximum inhibition of hemolysis): 61%; IC50 ([3]; unidentified influenza virus, Erythrocyte, Table 7, preliminary results, read-out: HEM, negative log of IC50 (preliminary results) (converted)): 100 to 1000 µM; inhibition at 10 µM [3, 13]: 13.2%; inhibition at 1 µM ([3]; unidentified influenza virus, Erythrocyte, log conc -6 (M), read-out: hemolysis % ↓ OD): -5.1%; IC50 (C22 virus in MDCK2 cells [4]; MDCK2, read-out: INF, negative log of IC50 (preliminary results) (converted)): 10 to 100 µM; Hb control % ↓ OD (hemoglobin; log conc -5 (M)): 11%; Hb control % ↓ OD (hemoglobin; log conc -6 (M)): 3%"
"Cl.Nc1ccc(O)c2ccccc12 [Compound 121, 4-amino-1-naphthol hydrochloride]",,,,,,,,,,,,100,,,"INF, words (Table 7) (C22 virus in MDCK2 cells [2]): toxic; infectivity in Table 6 (C22 virus in MDCK2 cells [2]): toxic; IC50 ([3]; unidentified influenza virus, Erythrocyte, 0.25 h, read-out: IC50 hemolysis): ≥ 1000 µM; IC50 ([3]; unidentified influenza virus, Erythrocyte, read-out: HEM, negative log of IC50 (converted)): ≥ 1000 µM; inhibition at 10 µM [3, 14]: -4.6 ± 0.1%; inhibition at 100 µM [3, 14]: 31.5 ± 7.8%; inhibition at 1000 µM [3, 14]: 116%; Hb control % ↓ OD (hemoglobin): 68.0%"
"O=C1c2ccccc2C(=O)c2c(O)ccc(O)c21 [Compound 102, quinizarin]",,,,,,,,,,,,,,,solubility at 1 mM ([6]; 1 mM): only partially soluble at 1 mM; inhibition in the SPA assay ([5]; 1 μM-1 mM): showed no inhibition; activity note in Table 7 ([5]; Table 7): inactive
"CC(C)(C)c1cc(O)ccc1O [Compound 117, tert-butylhydroquinone]",,apparently inhibited hemolytic activity,100,116,31.6 ± 6.9,7.5 ± 0.1,22.2 ± 13.2,53.7 ± 26.4,10 to 100,-8.4 ± 7.6,-13.7 ± 2.8,-26.1 ± 3.3,17.8,9.9 ± 2.8,"inhibition of syncytia formation ([1]; 1 μM): Significant inhibition was not observed; inhibition of syncytia formation ([1]; 10 μM): completely abolished the ability of the virus to induce syncytia; % inhibition, POST control (low pH BHA; log conc -3 (M)): -3.4%; % inhibition, POST control (low pH BHA; log conc -4 (M)): 2.9%; % inhibition, POST control (low pH BHA; log conc -5 (M)): 9.1%; % inhibition, POST control (low pH BHA; log conc -6 (M)): 4.7%; IC50 [3, 7]: 100 µM; inhibition at 10 µM [3, 13]: 13.9%; activity rank among compounds tested [5]: most active; Hb control % ↓ OD (hemoglobin; log conc -5 (M)): 7.9%"
"O=c1[nH]c(=O)n(O)c2nc[nH]c12 [Compound 113, xanthine 3-N-oxide]",,,,,,,,,,,,,,,solubility in DMSO ([6]; DMSO): insoluble in DMSO
"Cc1c(O)ccc(O)c1C [Compound 99, 2,3-dimethylhydroquinone]",toxic,did not,> 1000,28.7,,26.2 ± 8.6,35.9 ± 5.2,114 ± 12,> 10,-4.2 ± 9,-10.1 ± 10,99.4 ± 0.4,27.8,,"IC50 [3, 7]: > 1000 µM; IC50 (C22 virus in MDCK2 cells [4]; [12]): > 10 µM"
"5,8-dihydro-5,8-methano-1,4-naphthalenediol [Compound 83]",,inhibits HA-mediated hemolysis,,,,,,,,,,,16.5 ± 2.1,,"infectivity % inhibition (C22 virus in MDCK2 cells [2]; log conc -3 (M)): 51.1 ± 28.3%; infectivity % inhibition (C22 virus in MDCK2 cells [2]; log conc -4 (M)): 33.1 ± 20.2%; infectivity % inhibition (C22 virus in MDCK2 cells [2]; log conc -5 (M)): 8.7 ± 6.7%; infectivity % inhibition (C22 virus in MDCK2 cells [2]; log conc -6 (M)): 12.3 ± 2.5%; % inhibition, POST (Table 1) (low pH BHA; 1 mM, POST control): 2.1%; hemolysis % ↓ OD ([3]; log conc -3 (M), 1000 µM): 67.0 ± 15.1%; hemolysis % ↓ OD ([3]; log conc -4 (M), 100 µM): 17.9 ± 20.0%; hemolysis % ↓ OD ([3]; log conc -5 (M), 10 µM): 11.3 ± 10.3%; SPA activity [5]: significant activity"
"Oc1ccc2ccccc2c1O [Compound 124, 1,2-dihydroxynaphthalene]",,,,,,,,,,,,80.5,,,"infectivity in Table 6 (C22 virus in MDCK2 cells [2]; Table 6): toxic; INF, words (Table 7) (C22 virus in MDCK2 cells [2]; Table 7): toxic"
"O=C1C=CC(=O)c2cc3ccccc3cc21 [Compound 114, 1,4-anthraquinone]",toxic,,,,,0.2 ± 0.2,92.3 ± 12.7,,,-4.3 ± 3.3,53.7 ± 2.1,102,,,"infectivity in Table 6 (C22 virus in MDCK2 cells [2]; Table 6): toxic; INF, words (Table 7) (C22 virus in MDCK2 cells [2]; Table 7): toxic"
